Laboratory results as given in patent US6903130B1, “Pyrrolidineacetamide derivative alone or in combination for treatment of cns disorders” (UCB S.A., priority 1999, dated 2005).
Like-named read-outs stand apart in the source and are kept apart here.

Columns and labels:
[1] = tested on: rats with hyperactivity induced by a mixture of dexamphetamine-chlordiazepoxide; experiment: Y-maze test, DEX-CDP hyperactivity, levetiracetam and valproate alone or combined (Example 6); format: in vivo, rat; conditions: median (Q1-Q3)
Text: The purpose of the present experiment was to study the effects of levetiracetam administered alone or in combination with valproate on the hyperactivity induced in rats by a mixture of dexamphetamine-chlordiazepoxide (DEX-CDP) evaluated in a Y-shaped maze apparatus, a test recognized as a model for mania. Increased motor activity is a frequent symptom of manic disorders and, therefore, is often used as a model of mania in laboratory animals. Lithium, a medicine approved by the FDA in the prophylaxis and the treatment of bipolar disorders and mania, and valproate, indicated for the treatment of manic episodes associated with bipolar disorders, have been shown active in this model of mania (Vale A. L. & Ratcliffe F., Psychopharmacol. (1987), 91, 352-355; Cao B. J. & Peng N. A., Eur. J. Pharmacol. (1993), 237, 177-181).
Hyperactivity was induced in male Sprague Dawley rats weighing 210-290 g (n 13 or 15 per group) by a mixture of dexamphetamine-chlordiazepoxide as described by Vale A. L. (Vale A. L. & Ratcliffe F., Psychopharmacol. (1987), 91, 352-355). […]
Each rat was placed in the center of the Y-maze (with each arm 40 cm long and 15 cm wide with 35 cm walls) constructed in gray plexiglas. The number of visits into the arms was recorded over a 5 minutes period as an index of activity.
The results were expressed as median with the first and third quartile. […]

[2] = tested on: amygdala-kindled rats; experiment: Protection against secondarily generalized motor seizures in amygdala-kindled rats; format: in vivo, rat; conditions: for ED50: Rattus norvegicus, ip, read-out: ED50, protection against secondarily generalized motor seizures
Text: The purpose of this study was to evaluate the pharmacodynamic interaction between valproate levetiracetam in preventing secondarily generalized motor seizures in amygdala-kindled rats, a model that has repeatedly been proposed to reflect complex partial seizures with secondarily generalization in man ([…]. & al., Exp. Neurol. […] McNamara J. O., Ann. of Neurol. (1984), 16 (suppl.), […]-[…]). In this model, focal electrical kindling of amygdala in rats induces the development of electrical seizure activity ([…] amygdala and behavioral seizures, generally evolving through facial clonus, head nodding, forelimb clonus, rearing and fully kindled seizures with rearing and falling accompanied by generalized clonic seizures (Racine R. J., Electroencephalogr. Clin. Neurophysiol. (1972), 32, 281-294). […] Neurol. […] Two days later, drugs were tested. The behavioral effect of stimulation was graded according to the score of Racine (Racine R. J., Electroencephalogr. Clin. Neurophysiol. (1972), 32, 281-294).

[3] = tested on: amygdala-kindled rats; experiment: Rotarod test in amygdala-kindled rats
Experimental: Levetiracetam and valproate, in a dose-volume of 5 ml/kg body weight, were administered intraperitoneally 60 and 30 minutes, respectively, before the induction of kindling or the measurement of rotarod performance. Levetiracetam ([…]) and sodium valproate (50, 100, 150, 200 and 300 mg/kg) were both dissolved in 0.9% NaCl to give solutions of pH 5.9 and 6.3, respectively. Control rats received an equivalent dose-volume of the appropriate vehicle.
The amygdala-kindled rats (n=8) were also tested on a rotating rod. The animals were pretreated with i.p. administrations of levetiracetam and valproate 60 and 30 minutes, respectively, before testing, Only animals that were unable to remain on the rod after three subsequent 1-minute attempts were considered as having an impaired performance. Results were analyzed as described in example 1.

Row | SMILES | Number of arms visited ([1]; valproate 150 mg/kg i.p. + DEX-CDP mixture) | ED50 ([2]; compound alone, i.p., LOGIT-LOG DOSE regression) | Impairment in the performance within the rotarod test ([3]; valproate 197 mg/kg + saline (treatment protecting 50% of the rats)) | Number of arms visited ([1]; levetiracetam 17 mg/kg i.p. + DEX-CDP mixture) | ED50 [2] | Calculated proportion of animals protected ([2]; levetiracetam 17 mg/kg alone) | Calculated proportion of animals protected ([2]; levetiracetam 54 mg/kg alone) | Calculated proportion of animals protected ([2]; levetiracetam 108 mg/kg alone) | impairment of rotarod performance (in words) ([3]; levetiracetam alone 108, 170 and 540 mg/kg i.p.)
1 | CCCC(CCC)C(=O)[O-].[Na+] [Valproate, sodium valproate] | 41 (18-49) | 197 mg/kg | 46% | – | – | – | – | – | –
2 | CC[C@@H](C(N)=O)N1CCCC1=O [Levetiracetam, (S)-(−)α-ethyl-2-oxo-1-pyrrolidineacetamide] | – | – | – | 46 (41-49) | 307 mg/kg | 7% | 18% | 28.5% | None of the three doses of levetiracetam tested (108, 170 and 540 mg/kg) impaired the performance
